In ChEMBL document CHEMBL1153923, “Carbonic anhydrase inhibitors. Inhibition of human erythrocyte isozymes I and II with a series of antioxidant phenols” (Bioorg Med Chem, 2009):

What was measured:
[1] = biological target: Carbonic anhydrase 1 (Homo sapiens, UniProt P00915); assay: Inhibition of human erythrocyte CA1 esterase activity using 4-nitrophenyl acetate substrate
[2] = biological target: Carbonic anhydrase 2 (Homo sapiens, UniProt P00918)
Description: Inhibition of human erythrocyte CA2 esterase activity using 4-nitrophenyl acetate substrate

Carbonic anhydrase 1, sequence (P00915 whole entry): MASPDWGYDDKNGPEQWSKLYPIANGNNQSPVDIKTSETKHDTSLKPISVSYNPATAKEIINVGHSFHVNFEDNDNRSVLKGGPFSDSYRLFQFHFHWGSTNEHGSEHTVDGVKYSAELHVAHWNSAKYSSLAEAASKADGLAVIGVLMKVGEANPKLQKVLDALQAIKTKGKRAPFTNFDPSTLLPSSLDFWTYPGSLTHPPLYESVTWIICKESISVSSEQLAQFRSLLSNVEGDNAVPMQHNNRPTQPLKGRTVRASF

SMILES | Ki [1] [µM] | Ki [2] [µM]
CC(C)(C)c1cc(-c2cc(C(C)(C)C)c(O)c(C(C)(C)C)c2)cc(C(C)(C)C)c1O | 37.5 | –
CC(C)(C)c1cccc(C(C)(C)C)c1O | 275 | –
Cc1cccc(C)c1O | 198 | 113
Cc1cc(-c2cc(C)c(O)c(C)c2)cc(C)c1O | 92.8 | 4.05
CC(C)c1cc(-c2cc(C(C)C)c(O)c(C(C)C)c2)cc(C(C)C)c1O | 37.9 | –
COc1c(O)cccc1C=O | 55.6 | –
COc1cc(C(C)(C)C)c(O)c(C(C)(C)C)c1 | 63.7 | –
Cc1cc(C(C)(C)C)c(O)c(C(C)(C)C)c1 [BUTYLATED HYDROXYTOLUENE] | 245 | 0.63
COc1ccccc1O [GUAIACOL] | 60.2 | 2.94
CC(C)c1cccc(C(C)C)c1O [PROPOFOL] | 98.9 | 19.5
